# Patent US10802016B2, “Microdroplet based bioassay platform” (Northeastern University, priority 2015, dated 2020)
# System: DC
# Assay: LPS induced IL-6 secretion from single dendritic cells in droplets
# Format: cell-based, mouse
# Details: single DC co-encapsulated with LPS; versus droplets with no LPS
# Description: FIG. 16A is a schematic illustration of […] carried out in a microdroplet.
# The activation and monitoring of live single cells for secretion and cell surface markers have been measured simultaneously. In particular, droplet based technology can be applied to simultaneously stimulate mouse DC maturation with an immunological adjuvant, lipopolysaccharide (LPS), and to monitor two phenotypic markers of DCs. The maturation phenotype of the live DC was followed by measuring CD86 expression and IL-6 secretion. DC were co-encapsulated with LPS and bioassay reagents (microsphere sensors and antibodies). This method made it possible to distinguish the responses of individual cells to LPS stimulation in the confined volume of droplets. In addition to CD86, LPS induced IL-6 secretion could be monitored from the same encapsulated single DCs (FIG. 16B). The signal was detected in droplets after 10 min in the array.
substance,measurement,value
lipopolysaccharide [LPS],IL-6 levels in droplets,significantly higher
